Results reported in PMC8909805, “Anticancer Activity of (S)-5-Chloro-3-((3,5-dimethylphenyl)sulfonyl)-N-(1-oxo-1-((pyridin-4-ylmethyl)amino)propan-2-yl)-1H-indole-2-carboxamide (RS4690), a New Dishevelled 1 Inhibitor” (Cancers, 2022).

What was measured:
SW620 cells = assay: Cell growth inhibition, XTT assay, SW620; assay type: cell-based; conditions: Homo sapiens, SW-620; incubation time 72 h
Protocol: (§1) Cell viability was evaluated by XTT [35] (SW480 and SW620 cells) or MTT [36] (HEK293 and HCT116 cells) colorimetric assays. Briefly, cells (range 10–30 × 10^3 cells/well) were seeded in 96-well microculture plates and then exposed to increasing concentrations of different compounds (range 0–300 µM) for 48 or 72 h. At the end of the treatment, media were removed and incubated at 37 °C in the dark for 4 h in phosphate-buffered saline (PBS) containing 0.2 mg/mL of sodium 3′-[1-[(phenylamino)-carbonyl]-3,4-tetrazolium]-bis(4-methoxy-6-nitro)benzene-sulfonic acid hydrate (XTT) (Thermo Fisher Scientific, Waltham, MA, USA) or (3-[4,5-dimethylthiazol-2-yl]-2,5 diphenyl tetrazolium bromide (MTT) (Merck, Kenilworth, NJ, USA) and phenazine methosulfate (PMS) at a final concentration of 25 µM. Absorbance at 450 nm and a reference wavelength of 650 nm was then measured using a microplate spectrophotometer (Multiskan FC Microplate Photometer, Thermo Scientific, Waltham, MA, USA). The cell growth inhibition rate was calculated utilizing the following formula: inhibition rate (%) = […], where Control OD is absorbance of negative control and Sample OD is absorbance of the test sample. The IC50 values were determined with GraphPad Prism 5 through constructed dose-response curves.
(§2) In vitro cultures of colon cancer cells often present mutations either in the APC gene or in the β-catenin gene. […] Two of these cell lines, colon cancer SW480 and SW620 cells, were used in dose-response experiments. […] We thus tested their growth inhibitory activity on the colon cancer cell line HCT116. In terms of APC and β-catenin, these represent the wt counterparts of SW480 and […]. HCT116 cells express wt APC and are heterozygous for β-catenin, harboring one wild type and one mutant (Ser45del) allele. WNT pathway activity and the survival of HCT116 cells thus depend on DVL and can be affected by FZD and DVL inhibitors. […]

HCT116 cells = assay: Cell growth inhibition, MTT assay, HCT116; assay type: cell-based; conditions: Homo sapiens, HCT-116; incubation time 48 h; cells express wild-type APC
Protocol: as §1, §2

| Compound | EC50 (SW620 cells) | EC50 (HCT116 cells) |
| --- | --- | --- |
| Cc1cc(C)cc(S(=O)(=O)c2c(C(=O)N[C@H](C)C(=O)NCc3ccncc3)[nH]c3ccc(Cl)cc23)c1 [(R)-1] | 54.8 ± 1.9 µM | 28.3 ± 1.2 µM |
| Cc1cc(C)cc(S(=O)(=O)c2c(C(=O)N[C@@H](C)C(=O)NCc3ccncc3)[nH]c3ccc(Cl)cc23)c1 [(S)-1, (S)-5-Chloro-3-((3,5-dimethylphenyl)sulfonyl)-N-(1-oxo-1-((pyridin-4-ylmethyl)amino)propan-2-yl)-1H-indole-2-carboxamide] | 45.9 ± 2 µM | 7.1 ± 0.6 µM |
| Cc1cc(C)cc(S(=O)(=O)c2c(C(=O)NC(C)C(=O)NCc3ccncc3)[nH]c3ccc(Cl)cc23)c1 (stereo not drawn) [Compound 1] | 38.5 ± 1.6 µM | 15.2 ± 1.1 µM |
